Columns and labels:
[1] = tested on: SJL/J mice infected with Theiler's murine encephalomyelitis virus; assay: Spinal cord remyelination quantitation in TMEV-infected mice; assay type: in vivo, mouse
Procedure: (§1) All mice used in the experiments were SJL/J mice (Jackson Laboratories, Bar Harbor, Me.). Six- to eight-week-old mice were intracerebrally injected with 2.0×10^6 pfu of Daniel's strain of Theiler's murine encephalomyelitis virus.
Areas of spinal cord demyelination (lesion load) and remyelination (73) were determined from multiple cross-sections of plastic-embedded spinal cords, using a camera lucida system and a computerized drawing tablet (39). Briefly, mice were sacrificed by overdose with sodium pentobarbital and perfused by intracardiac puncture with Trumps fixative, containing 4% paraformaldehyde and 1% glutaraldehyde. Spinal cords were removed, post-fixed in osmium textroxide, and sectioned into 1 mm blocks. Every third block (10-12 blocks per spinal cord; cervical to lumbar range) was embedded in Araldite plastic. […]
Using a camera lucida attached to a Zeiss photomicroscope and a ZIDAS interactive digital analysis system, three parameters were measured from each slide: total white matter area, demyelinated lesion area, and remyelination area. Outline of these regions were traced and the areas calculated by the computerized digital analysis system. Demyelination was expressed as the total lesion area as a percentage of total white matter area. Remyelination was expressed as the total remyelination area as a percentage of the total demyelinated lesion area. […]

[2] = tested on: experimental autoimmune encephalomyelitis (EAE); conditions: unlike MBP; cited from earlier work
UV-inactivated TMEV = assay: TMEV delayed type hypersensitivity (ear thickness); assay type: in vivo, mouse; conditions: immunized mice vs IFA control
Procedure: Ear thickness was measured prior to injection, and 24 and 48 hr after injection.
(§2) Serum titers of antibodies against TMEV and anti-TMEV DTH reactions were measured.

TMEV [3] = assay: Serum anti-TMEV IgG titers after glatiramer acetate immunization; assay type: in vivo, Theiler's murine encephalomyelitis virus; conditions: four weeks after immunization, vs control mice
Procedure: An indirect ELISA was performed in which serum or a purified antibody was applied to plates that were pre-coated with glatiramer acetate or other protein antigens. The antigen of interest was dissolved in 0.1 M carbonate buffer, pH 9.5, and applied at 1 μg per well in 96-well polystrene plates. Incubation was overnight at 4° C. Plates were then rinsed with PBST (phosphate buffered saline containing 0.05% Tween 20 detergent) and incubated for 1 hr in PBSM (phosphate buffered saline containing 5% defatted milk powder). Plates were rinsed with PBST, then incubated for 4 hr at room temperature with 50×PBS. Plates were rinsed with PBST, then incubated with biotinylated secondary antibodies that were raised in goat. The secondary antibodies, diluted in PBSM 1:50, were specific to mouse IgG or mouse IgM. Incubation was for 2 hr at room temperature. Plates were rinsed in PBST, then PBS. Streptavidin-alkaline phosphatase conjugate diluted in PBS was applied to the plates for 2 hr room temperature. Plates were rinsed with PBST, with a final rinse in water. The colored reaction product was produced by incubation with p-nitrophenyl phosphatase in 0.1 M carbonate buffer plus 1 mM magnesium chloride. The reaction was stopped with 0.5 N sodium hydroxide. […] Optical absorbency was measured at a wavelength of 405 nm.
as §2

TMEV [4] = assay: TMEV antigen expression (virus antigen-positive cells); assay type: in vivo, Theiler's murine encephalomyelitis virus; conditions: 6-9 wks after high-dose immunization
[5] = Serum titres of glatiramer acetate IgG after glatiramer acetate immunization (ELISA); assay type: in vivo, mouse
Procedure: The antigen of interest was dissolved in 0.1 M carbonate buffer, pH 9.5, and applied at 1 μg per well in 96-well polystrene plates. Incubation was overnight at 4° C. Plates were then rinsed with PBST (phosphate buffered saline containing 0.05% Tween 20 detergent) and incubated for 1 hr in PBSM (phosphate buffered saline containing 5% defatted milk powder). Plates were rinsed with PBST, then incubated for 4 hr at room temperature with 50×PBS. Plates were rinsed with PBST, then incubated with biotinylated secondary antibodies that were raised in goat. The secondary antibodies, diluted in PBSM 1:50, were specific to mouse IgG or mouse IgM. Incubation was for 2 hr at room temperature. Plates were rinsed in PBST, then PBS. Streptavidin-alkaline phosphatase conjugate diluted in PBS was applied to the plates for 2 hr room temperature. Plates were rinsed with PBST, with a final rinse in water. The colored reaction product was produced by incubation with p-nitrophenyl phosphatase in 0.1 M carbonate buffer plus 1 mM magnesium chloride. The reaction was stopped with 0.5 N sodium hydroxide. Antibody isotyping was performed using a detection kit and purified isotype standards from Zymed Laboratories (San Francisco, Calif.). Extrapolation of the concentration of each isotype within the antibody samples was based on the sample dilution that produced the absorbence signal falling within the most linear portion of each standard isotype curve. Optical absorbency was measured at a wavelength of 405 nm.
Antibodies from normal SJL serum (SJL Ig) and commercial, pooled mouse serum (Pooled Ig) were also purifed by Protein A/G chromatography.
Mice were sacrificed on Day 65 post-immunization. […] The secondary antibody was biotinylated anti-mouse IgG.
Serum was isolated from these mice on Day 62. […] Serum was isolated from these mice on Day 41. […] Serum was isolated on Day 76. […] The secondary antibody was biotinylated anti-mouse IgG.
The final passive transfer was on Day 35. After 41 days of treatment, both groups of mice were sacrificed and serum titres of Copolymer IgG was measured by ELISA. The secondary antibody was biotinylated anti-mouse IgG.

[6] = tested on: lymph node-derived lymphocytes from MBP84-102- and PLP179-191-immunized mice; assay: In vitro [3H]-thymidine proliferation of lymph node-derived lymphocytes from myelin peptide-immunized mice; assay type: cell-based, mouse; conditions: Experiment 6A; 53 hours culture
Procedure: Two mice were subcutaneously injected in the flanks with MBP 84-102 in complete Fruend's adjuvant (CFA). MBP84-102 was obtained by following the procedure of Hawes et al (24). A method similar to that of Tuohy et al. was employed to produce PLP179-191 (70). PLP179-191 in CFA was subcutaneously injected into the flanks of 1 mouse. […] In the last 13 hours of culture, 1 μCi of [^3H]-thymidine was added and its incorporation measured by scintillation counting of harvested cells.
Mice were subcutaneously injected in the flanks with MBP84-102 (2 mice) peptide in CFA. After 10 days, inguinal and peri-aortic lymph nodes were removed, dissociated, and grown for 74 hours in cultures in medium alone or with additional additives as shown in FIG. 17. In the last 12 hours of culture, 1 μCi of [^3H]-thymidine was added and its incorporation measured by scintillation counting of harvested cells.

multiple sclerosis = conditions: daily subcutaneous injections, 20 mg/injection; cited from earlier work
[7] = tested on: SJL/J mice infected with Theiler's murine encephalomyelitis virus; assay: Spinal cord demyelination quantitation (lesion load) in TMEV-infected mice; assay type: in vivo, mouse
Procedure: as §1
Areas of spinal cord demyelination (lesion load) and remyelination (73) were determined from multiple cross-sections of plastic-embedded spinal cords, using a camera lucida system and a computerized drawing tablet (39). Briefly, mice were sacrificed by overdose with sodium pentobarbital and perfused by intracardiac puncture with Trumps fixative, containing 4% paraformaldehyde and 1% glutaraldehyde. Spinal cords were removed, post-fixed in osmium textroxide, and sectioned into 1 mm blocks. Every third block (10-12 blocks per spinal cord; cervical to lumbar range) was embedded in Araldite plastic. The embedded tissues were cross-sectioned at 1 μm thickness, and the slides stained with 4% paraphenylenediamine to highlight the myelin sheaths.
Using a camera lucida attached to a Zeiss photomicroscope and a ZIDAS interactive digital analysis system, three parameters were measured from each slide: total white matter area, demyelinated lesion area, and remyelination area. Outline of these regions were traced and the areas calculated by the computerized digital analysis system. Demyelination was expressed as the total lesion area as a percentage of total white matter area. Remyelination was expressed as the total remyelination area as a percentage of the total demyelinated lesion area. The criterion for remyelination by oligodendrocytes was abnormally thin myelin sheaths. All remyelination data refers to oligodendrocyte-mediated remyelination. Occasionally, Schwann-cell mediated remyelination was observed, characterized by abnormally thick myelin sheaths and nuclei juxtaposed to the myelin sheath.
Virus was injected on Day 0.
Chronically infected mice (124-365 days post-infection) were treated subcutaneously for periods of 41-76 days. […] These mice were sacrificed after 65 days. […] The members of this group were sacrificed after 65-76 days. […] Sacrifice of these mice occurred after 41-65 days. The control group of mice received PBS. In all groups, spinal cord demyelination was measured after sacrifice.
Chronically infected mice (160-477 days post-infection) were treated by intraperitoneal injection with antibodies for periods of 36-76 days. One group of mice received Normal antibodies, administered in 10 injections of 0.05 mg each for a total of 0.5 mg over 42 days. […] PBS was administered to the control group of mice. Spinal cord white matter demyelinating pathology was measured post-sacrifice for all mice.
Each mouse received 5 weekly injections for total antibody doses of 0.5 or 1.5 mg (0.1-0.3 mg/injection). After sacrifice, spinal cord demyelination was measured.

L-glutamic acid polymer with L-alanine, L-lysine and L-tyrosine, acetate (salt) [glatiramer acetate]
remyelination of lesions (pathology) ([1]; Example 8, infected 6 months or longer, glatiramer acetate 0.1 mg/injection or antibodies 1.5 mg total): not more extensive than following the PBS treatment | effect on extent of oligodendrocyte-mediated remyelination ([1]; late disease, s.c. treatment as Experiment 2A, alone or with IFA): did not affect the extent of oligodendrocyre-mediated remyelination | effect on EAE [2]: inhibits rather than induces | anti-TMEV DTH reactions (UV-inactivated TMEV): reduced | anti-TMEV titers (total IgG, IgG1, IgG2a) (TMEV [3]): reduced | virus expression (virus antigen-positive cells) (TMEV [4]): tended to be higher | highest antibody titer reached ([5]; chronically diseased mice immunized with 5 mg): 1.2 mg/mL | dose dependence of production of antibodies against glatiramer acetate ([5]; chronically diseased mice, 0.1 vs 5 mg injections): highly dose-dependent | influence of dose (0.1-1.0 mg) and injection timing on glatiramer acetate IgG titres ([5]; non-infected immunized mice): did not significantly influence glatiramer acetate IgG titres | time required to achieve high antibody titres ([5]; non-infected immunized mice): Approximately 3 weeks | lymphocyte proliferation [6]: did not induce significant proliferation | clinical effect in multiple sclerosis (multiple sclerosis): reduce relapse rates, appearance of new lesions by magnetic resonance imaging (MRI), and progression of disability | effect on extent of demyelination ([7]; early disease, 45 days post-infection, 0.1 mg/injection, 60 days of treatment): no statistically significant effect | effect on demyelinating lesions ([7]; late disease, high dose (5 mg glatiramer acetate/IFA, 1-2 injections), vs PBS): expansion of the demyelinating lesions | white matter demyelinated (mean lesion load) ([7]; late disease, high dose of glatiramer acetate): 20% | effect on extent of demyelination ([7]; late disease, low doses (0.1 mg/injection), alone or with adjuvant): did not alter the extent of demyelination | white matter demyelinated (mean lesion load) ([7]; late disease, low-dose glatiramer acetate): 10%
